Test results: PMC6152416, “Pharmacological and Toxicological Screening of Novel Benzimidazole-Morpholine Derivatives as Dual-Acting Inhibitors” (Molecules : A Journal of Synthetic Chemistry and Natural …, 2017)
“Also recorded” adds a separate entry of the source. Where two headings read alike, the source gives them in different places. Marks after values point to notes of the source that are not given here.

Experiments:
COX-2 = target: T1, COX-2 (Homo sapiens, UniProt P35354); experiment: Fluorimetric COX-2 inhibition screening kit (BioVision); assay type: biochemical; conditions: for COX-2 inhibition at the initial concentrations: 10^−3 M and 10^−4 M; for inhibition at 10 µM: 10^−5 M; for inhibition at 0.1 µM: 10^−7 M; for inhibition at 0.01 µM: 10^−8 M; for inhibition at 0.001 µM: 10^−9 M; for inhibition at 1 µM: read-out: COX 2 Inhibition %
T1 construct: purchased BioVision (Milpitas, CA, USA) K547-100
T1 sequence (P35354 18-604): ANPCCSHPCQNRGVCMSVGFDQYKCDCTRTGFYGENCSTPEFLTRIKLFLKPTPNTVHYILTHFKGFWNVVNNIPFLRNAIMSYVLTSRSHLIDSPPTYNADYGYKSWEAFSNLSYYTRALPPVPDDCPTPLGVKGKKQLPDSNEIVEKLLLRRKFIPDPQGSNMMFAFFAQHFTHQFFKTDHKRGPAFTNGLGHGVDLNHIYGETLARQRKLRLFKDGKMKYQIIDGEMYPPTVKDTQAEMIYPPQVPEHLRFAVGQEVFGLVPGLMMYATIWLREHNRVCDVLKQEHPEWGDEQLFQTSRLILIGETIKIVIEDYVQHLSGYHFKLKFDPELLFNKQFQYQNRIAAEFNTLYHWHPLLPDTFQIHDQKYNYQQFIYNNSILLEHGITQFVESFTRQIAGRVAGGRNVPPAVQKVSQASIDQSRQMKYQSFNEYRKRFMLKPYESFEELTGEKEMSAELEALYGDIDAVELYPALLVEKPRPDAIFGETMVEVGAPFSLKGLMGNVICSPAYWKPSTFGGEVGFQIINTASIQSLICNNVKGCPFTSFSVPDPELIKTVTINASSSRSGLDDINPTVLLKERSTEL
Description: Inhibitory potency of the compounds on COX-1 and COX-2 enzymes was determined by using fluorimetric COX-1 and COX-2 inhibition screening kits from BioVision (Milpitas, CA, USA). The experimental protocol as described in the guides provided by the supplier was followed. All of the pipetting were performed using a robotized system to increase speed, accuracy and precision. Fluorescence intensities of the samples were kinetically measured at 25 °C for 5–10 min by monitoring emissions at 587 nm after excitation at 535 nm. Two appropriate points (T1 and T2) in the linear range of the plot were chosen and the corresponding fluorescence values (RFU1 and RFU2) were obtained. The slope for all samples including Enzyme Control (EC) was calculated by dividing the net ΔRFU (RFU2 − RFU1) values by the time ΔT (T2 − T1). Percentage of relative inhibition was calculated by using the following equation:% Relative inhibition = (Slope of EC − Slope of S/Slope of EC) × 100 where S is the term representing the tested compound [51, 52]. […] The IC50 values were calculated using the plots of the enzyme activity against concentrations by applying regression analyses.

[1] = system: Salmonella typhimurium TA100; experiment: Ames MPF genotoxicity assay; assay type: cell-based; conditions: for Ames MPF mutagenicity classification: TA100, with/without metabolic activation (S9)
Description: (§1) The genotoxicity of selected compounds (2b, 2j, 2m) was determined by Ames assay using Ames MPF 98/100 mutagenicity assay sample kit (Xenometrix AG, Allschwil, Switzerland) as previously described elsewhere. Salmonella typhimurium strains, TA98 (frameshift mutations) and TA100 (base-pair substitutions) were used in the assay. The concentration of the compounds was between 16 and 5000 μg/mL, in accordance with the guideline. Compounds were prepared in six different concentrations (5.0, 2.5, 1.25, 0.625, 0.3125, 0.156 mg/mL) in DMSO. Mutagenic potential was determined in the absence or presence of Aroclor™-1254 induced male Sprague–Dawley rat liver microsomal enzyme (S9) mix (Xenometrix AG). Positive controls without S9 mix were 2-nitrofluorene (2.0 μg/mL) and 4-nitroquinoline N-oxide (0.1 μg/mL), whereas 1.0 μg/mL and 2.5 μg/mL of 2-aminoanthracene solutions were used as positive controls with S9 against TA98 and TA100, respectively. Solvent control was prepared with 4% DMSO. The end of an experiment was determined by the change of the indicator medium colour to yellow, which was originating from the decrease of pH due to revertant bacteria. Yellow wells were counted as positive, and compared with the negative control. Fold induction over the negative control and fold induction over the baseline were calculated (Fold induction over the negative control is accepted as the ratio of the mean number of positive wells for the dose concentration divided by the mean number of positive wells for the zero dose (negative) control. Fold induction over the baseline is accepted as the ratio of the mean number of positive wells for the dose concentration divided by zero dose baseline. The zero-dose baseline is obtained by adding one standard deviation to the mean number of positive wells of the zero dose control. If the baseline is less than 1, the value is set to 1 for calculation).
(§2) Mutagenicity was determined according to the criteria reported previously. For a baseline value of ≤3, significant increases between 2 and 3-fold of the baseline were classified as weak mutagen, and increases ≥3-fold of the baseline were classified as mutagen. […] As a rule, at least two adjacent doses with significant increases or a significant increase at the highest dose level should be observed for a mutagenic compound. All of the doses were compared according to Student’s t-test at p < 0.05 for statistical significance.

[2] = system: Salmonella typhimurium TA98; experiment: Ames MPF genotoxicity assay; assay type: cell-based; conditions: for Ames MPF mutagenicity classification: TA98, in the presence/absence of metabolic activation (S9)
Description: as §1, §2

| SMILES | IC50 (COX-2) [µM] | COX-2 Inhibition (%) (COX-2; 10^-3 M) | COX-2 Inhibition (%) (COX-2; 10^-4 M) | COX-2 inhibition at the initial concentrations (COX-2) | inhibition at 10 µM (COX-2) [%] | inhibition at 0.1 µM (COX-2) [%] | inhibition at 0.01 µM (COX-2) [%] | inhibition at 0.001 µM (COX-2) [%] | REVERTANTS Fold Increase (over Baseline) ([1]; TA100, S9+, 0.156 mg/mL) | REVERTANTS Fold Increase (over Baseline) ([1]; TA100, S9+, 0.3125 mg/mL) | REVERTANTS Fold Increase (over Baseline) ([1]; TA100, S9+, 0.625 mg/mL) | REVERTANTS Fold Increase (over Baseline) ([1]; TA100, S9+, 1.25 mg/mL) | REVERTANTS Fold Increase (over Baseline) ([1]; TA100, S9+, 2.5 mg/mL) | REVERTANTS Fold Increase (over Baseline) ([1]; TA100, S9+, 5 mg/mL) | REVERTANTS Fold Increase (over Baseline) ([1]; TA100, S9−, 0.156 mg/mL) | REVERTANTS Fold Increase (over Baseline) ([1]; TA100, S9−, 0.3125 mg/mL) | REVERTANTS Fold Increase (over Baseline) ([1]; TA100, S9−, 0.625 mg/mL) | REVERTANTS Fold Increase (over Baseline) ([1]; TA100, S9−, 1.25 mg/mL) | REVERTANTS Fold Increase (over Baseline) ([1]; TA100, S9−, 2.5 mg/mL) | REVERTANTS Fold Increase (over Baseline) ([1]; TA100, S9−, 5 mg/mL) | also measured |
| --- | --- | --- | --- | --- | --- | --- | --- | --- | --- | --- | --- | --- | --- | --- | --- | --- | --- | --- | --- | --- | --- |
| FC(F)(F)Oc1ccc(-c2nc3ccccc3n2CCN2CCOCC2)cc1 [Compound 2m, 2-(4-Trifluoromethoxyphenyl)-1-[2-(morpholin-4-yl)ethyl]-1H-benzimidazole] | 22.7 | 64.22 | 59.67 | more than 50% | 46.1 ± 1.13 | 34.5 ± 0.97 | 28.7 ± 0.83 | 22.3 ± 0.52 | 0.10 | 0.10 | 0.88 | 0.19 | 0.49 | 0.29 | 0.61 | 0.88 | 0.47 | 0.47 | 0.54 | 0.61 | inhibition at 1 µM (COX-2): 41.2 ± 1.05%; Ames MPF mutagenicity classification [1]: non-genotoxic; also recorded: non-mutagenic; REVERTANTS Fold Increase (over Baseline) ([2]; TA98, S9+, 0.156 mg/mL): 0.46; REVERTANTS Fold Increase (over Baseline) ([2]; TA98, S9+, 0.3125 mg/mL): 0.62; REVERTANTS Fold Increase (over Baseline) ([2]; TA98, S9+, 0.625 mg/mL): 0.77; REVERTANTS Fold Increase (over Baseline) ([2]; TA98, S9+, 1.25 mg/mL): 0.46; REVERTANTS Fold Increase (over Baseline) ([2]; TA98, S9+, 2.5 mg/mL): 1.23; REVERTANTS Fold Increase (over Baseline) ([2]; TA98, S9+, 5 mg/mL): 0.31; REVERTANTS Fold Increase (over Baseline) ([2]; TA98, S9−, 0.156 mg/mL): 0.95; REVERTANTS Fold Increase (over Baseline) ([2]; TA98, S9−, 0.3125 mg/mL): 0.70; REVERTANTS Fold Increase (over Baseline) ([2]; TA98, S9−, 0.625 mg/mL): 0.57; REVERTANTS Fold Increase (over Baseline) ([2]; TA98, S9−, 1.25 mg/mL): 1.08 *; REVERTANTS Fold Increase (over Baseline) ([2]; TA98, S9−, 2.5 mg/mL): 0.82; REVERTANTS Fold Increase (over Baseline) ([2]; TA98, S9−, 5 mg/mL): 1.08 *; Ames MPF mutagenicity classification [2]: non-genotoxic; also recorded: non-mutagenic |
| Clc1ccc(-c2nc3ccccc3n2CCN2CCOCC2)cc1 [Compound 2c, 2-(4-Chlorophenyl)-1-[2-(morpholin-4-yl)ethyl]-1H-benzimidazole] |  | 17.85 | 20.99 |  |  |  |  |  |  |  |  |  |  |  |  |  |  |  |  |  |  |
| CC(C)c1ccc(-c2nc3ccccc3n2CCN2CCOCC2)cc1 [Compound 2e, 2-(4-Isopropylphenyl)-1-[2-(morpholin-4-yl)ethyl]-1H-benzimidazole] |  | 14.26 | 22.61 |  |  |  |  |  |  |  |  |  |  |  |  |  |  |  |  |  |  |
| COc1ccc(-c2nc3ccccc3n2CCN2CCOCC2)cc1 [Compound 2b, 2-(4-Methoxyphenyl)-1-[2-(morpholin-4-yl)ethyl]-1H-benzimidazole] | 8.37 | 79.41 | 84.23 | more than 50% | 57.9 ± 1.28 | 38.1 ± 0.97 | 27.4 ± 0.87 | 21.4 ± 0.74 | 0.06 | 0.52 | 0.45 | 0.26 | 0.26 | 0.13 | 1.31 *** | 1.37 *** | 0.69 | 0.62 | 0.25 *** | 0.44 * | inhibition at 1 µM (COX-2; 10^−6 M): 43.7 ± 1.12%; Ames MPF mutagenicity classification [1]: non-genotoxic; REVERTANTS Fold Increase (over Baseline) ([2]; TA98, S9+, 0.156 mg/mL): 0.16; REVERTANTS Fold Increase (over Baseline) ([2]; TA98, S9+, 0.3125 mg/mL): 0.32; REVERTANTS Fold Increase (over Baseline) ([2]; TA98, S9+, 0.625 mg/mL): 0.00; REVERTANTS Fold Increase (over Baseline) ([2]; TA98, S9+, 1.25 mg/mL): 0.48; REVERTANTS Fold Increase (over Baseline) ([2]; TA98, S9+, 2.5 mg/mL): 0.80; REVERTANTS Fold Increase (over Baseline) ([2]; TA98, S9+, 5 mg/mL): 1.27; REVERTANTS Fold Increase (over Baseline) ([2]; TA98, S9−, 0.156 mg/mL): 0.69; REVERTANTS Fold Increase (over Baseline) ([2]; TA98, S9−, 0.3125 mg/mL): 0.75; REVERTANTS Fold Increase (over Baseline) ([2]; TA98, S9−, 0.625 mg/mL): 0.81; REVERTANTS Fold Increase (over Baseline) ([2]; TA98, S9−, 1.25 mg/mL): 0.40; REVERTANTS Fold Increase (over Baseline) ([2]; TA98, S9−, 2.5 mg/mL): 0.40; REVERTANTS Fold Increase (over Baseline) ([2]; TA98, S9−, 5 mg/mL): 0.75; Ames MPF mutagenicity classification [2]: non-genotoxic; also recorded: non-mutagenic |
| CCOc1ccc(-c2nc3ccccc3n2CCN2CCOCC2)cc1 [Compound 2j, 2-(4-Ethoxyphenyl)-1-[2-(morpholin-4-yl)ethyl]-1H-benzimidazole] | 13.1 | 80.66 | 79.23 | more than 50% | 52.5 ± 1.35 | 34 ± 1.06 | 26.9 ± 0.86 | 20.5 ± 0.76 | 0.15 | 0.00 | 0.15 | 0.38 | 0.31 | 0.15 | 0.80 | 1.00 | 0.40 | 0.67 | 0.67 *** | 1.20 | inhibition at 1 µM (COX-2; 10^−6 M): 43.4 ± 1.27%; Ames MPF mutagenicity classification [1]: non-genotoxic; also recorded: non-mutagenic; REVERTANTS Fold Increase (over Baseline) ([2]; TA98, S9+, 0.156 mg/mL): 0.25; REVERTANTS Fold Increase (over Baseline) ([2]; TA98, S9+, 0.3125 mg/mL): 0.12 *; REVERTANTS Fold Increase (over Baseline) ([2]; TA98, S9+, 0.625 mg/mL): 0.62; REVERTANTS Fold Increase (over Baseline) ([2]; TA98, S9+, 1.25 mg/mL): 0.74; REVERTANTS Fold Increase (over Baseline) ([2]; TA98, S9+, 2.5 mg/mL): 0.12; REVERTANTS Fold Increase (over Baseline) ([2]; TA98, S9+, 5 mg/mL): 0.74 *; REVERTANTS Fold Increase (over Baseline) ([2]; TA98, S9−, 0.156 mg/mL): 0.60; REVERTANTS Fold Increase (over Baseline) ([2]; TA98, S9−, 0.3125 mg/mL): 0.94; REVERTANTS Fold Increase (over Baseline) ([2]; TA98, S9−, 0.625 mg/mL): 0.68; REVERTANTS Fold Increase (over Baseline) ([2]; TA98, S9−, 1.25 mg/mL): 0.60; REVERTANTS Fold Increase (over Baseline) ([2]; TA98, S9−, 2.5 mg/mL): 0.94; REVERTANTS Fold Increase (over Baseline) ([2]; TA98, S9−, 5 mg/mL): 0.09 ***; Ames MPF mutagenicity classification [2]: non-genotoxic; also recorded: non-mutagenic |
